Patent US9006283B2, “Methods of modifying amyloid β oligomers using non-peptidic compounds” (Acumen Pharmaceuticals, Inc., priority 2007, dated 2015)

Experiments:
[1] = cited from earlier work
[2] = target: Aβ1-42 monomer assembly into Aβ oligomers (ADDLs) (Homo sapiens (Human), UniProt P05067); experiment: FRET assay of Aβ1-42 oligomer (ADDL) assembly inhibition; assay type: biochemical
Description: Fluorescence (or Förster) Resonance Energy Transfer (FRET) is a distance-dependent, non-radiative transfer of energy in which the de-excitation of one fluorophore (donor) is coupled to excitation of another fluorophore (acceptor). FRET occurs if (1) the quantum of energy emitted by a donor fluorophore corresponds to an acceptor fluorophore's excitation energy, (2) the orientations of donor and acceptor transition dipoles are nearly parallel and (3) the donor fluorescent emission spectrum overlaps the acceptor absorption spectrum.
In this assay, assembly of Aβ1-42 oligomer formation is monitored by FRET using N-terminal conjugates of fluorescein-Aβ1-42 as both the donor and acceptor fluorophore (fluorescein-fluorescein Ro˜45 Å). Aβ1-42 monomers assembling into oligomeric species results in a decrease of fluorescence as the fluorescein labeled Aβ1-42 peptides become proximal to each other and FRET efficiency increases. Inhibition of Aβ1-42 assembly is observed as the absence or attenuation of fluorescein quenching.
FRET and FP assays are performed in 384-well Corning Non-Binding Surface, black, opaque microtiter plates, and the assay buffer consists of 50 mM MOPS-Tris (pH 8.0) with 100 mM MgCl2. […] ADDL assembly is monitored on a Tecan GENios Pro plate reader, exciting at a wavelength of 485 nm and detecting emission at a wavelength of 515 nm. […]

[3] = cited from earlier work; remark: listed apart in the source

Aβ1-42 monomer assembly into Aβ oligomers (ADDLs), sequence (P05067 672-713): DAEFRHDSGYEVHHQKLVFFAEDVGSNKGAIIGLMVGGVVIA

For `NCCCS(=O)(=O)O` [Alzhemed, 3-amino-1-propanesulfonic acid], the cognitive decline ([1]; 20 month open-label extension of Phase II trial, some patients with mild AD) is given as “slowed cognitive decline”, the efficacy ([1]; blinded phase of the study) is given as “no efficacy was observed” and the “inhibition of Aβ1-42 monomer assembly into Aβ oligomers” value ([2]; FIG. 2, standard FRET assay conditions of Example 1) is given as “inability”.
In the case of `Oc1c(I)cc(Cl)c2cccnc12` [Clioquinol], the “patients' cognitive ability” value ([3]; compared to untreated patients) is listed as “stabilize” and the “Aβ1-42 levels in plasma” value ([3]; patients' plasma) is listed as “lower”.
For `CCOC(=O)c1c(NC(=O)C(=O)N/N=C/c2ccccc2O)sc2c1CCC(C)C2` (stereo not drawn) [Compound 4, 2-{[1-(2-Hydroxyphenyl)-meth-(E)-ylidene-hydrazinooxalyl]-amino}-6-methyl-4,5,6,7-tetrahydro-benzo[b]thiophene-3-carboxylic acid ethyl ester], the “inhibition of Aβ1-42 oligomer assembly” value ([2]; FIG. 1, Test Compound A ranging from 0.05 to 3 mM (0.05 to 3 μM in figure legend)) was “dose dependent inhibition”.
